According to ChEMBL document CHEMBL1201862, “PubChem BioAssay data set” (2004):
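Compound exposure: 48 hours, 5 concentrations, 96-well plates. Here, GI50 denotes the concentration required for 50% inhibition of growth.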 Active and inactive are the calls of the source. No stated cut-off is given here; in the data, active = GI50 up to about 1.1 µM and inactive = higher. Where a SMILES comes first, the peptide text is derived from it.

Key:
Experiment in all cases: growth of human tumour cells (NCI), 48 h
LOX IMVI = tested on: LOX IMVI
UACC-62 = tested on: UACC-62
SR = tested on: SR
NCI-H23 = tested on: NCI-H23
A549 = tested on: A549
HCT-116 = tested on: HCT-116
NCI-H226 = tested on: NCI-H226
SF-268 = tested on: SF-268
786-0 = tested on: 786-0
CAKI-1 = tested on: CAKI-1
HCC 2998 = tested on: HCC 2998
OVCAR-3 = tested on: OVCAR-3
RPMI-8226 = tested on: RPMI-8226
Malme-3M = tested on: Malme-3M
SK-MEL-28 = tested on: SK-MEL-28
SK-OV-3 = tested on: SK-OV-3
HOP-62 = tested on: HOP-62
MCF7 = tested on: MCF7
MDA-MB-231 = tested on: MDA-MB-231

Measured: GI50

COc1cc(C=C2C(=O)OC(C)(C)OC2=O)cc(OC)c1OC
inactive: LOX IMVI > 100 µM | UACC-62 > 100 µM | SR > 100 µM | NCI-H23 > 100 µM | A549 > 100 µM | HCT-116 > 100 µM | NCI-H226 > 100 µM | SF-268 > 100 µM | 786-0 > 100 µM | CAKI-1 > 100 µM | HCC 2998 > 100 µM | OVCAR-3 > 100 µM | RPMI-8226 > 100 µM | Malme-3M > 100 µM | SK-MEL-28 > 100 µM | SK-OV-3 > 100 µM

CC(C)=CC1(C)/C(=N\O)C(C)(CC(C)C)C(=O)N1O (centres undefined)
inactive: HOP-62 > 100 µM | LOX IMVI > 100 µM | UACC-62 > 100 µM | SR > 100 µM | NCI-H23 > 100 µM | A549 > 100 µM | HCT-116 > 100 µM | NCI-H226 > 100 µM | 786-0 > 100 µM | CAKI-1 > 100 µM | HCC 2998 > 100 µM | OVCAR-3 > 100 µM | RPMI-8226 > 100 µM | Malme-3M > 100 µM | SK-MEL-28 > 100 µM | SK-OV-3 > 100 µM

O=C(c1nc2ccc(Cl)cc2[nH]c1=O)C(O)c1cccc([N+](=O)[O-])c1 (centres undefined)
inactive: HOP-62 > 100 µM | LOX IMVI 18.5 µM | UACC-62 67.6 µM | SR 85.7 µM | NCI-H23 > 100 µM | A549 > 100 µM | HCT-116 > 100 µM | NCI-H226 > 100 µM | SF-268 33.3 µM | 786-0 > 100 µM | CAKI-1 > 100 µM | HCC 2998 > 100 µM | OVCAR-3 > 100 µM | RPMI-8226 9.66 µM | Malme-3M > 100 µM | SK-MEL-28 26.7 µM | SK-OV-3 > 100 µM

O=C(c1ccco1)n1c2ccc(Br)cc2c2nc3ccccc3nc21
inactive: HOP-62 16.1 µM | LOX IMVI 46.3 µM | MCF7 5.09 µM | UACC-62 31.6 µM | SR > 100 µM | NCI-H23 23.7 µM | HCT-116 46.7 µM | NCI-H226 68.4 µM | SF-268 27 µM | 786-0 18.7 µM | CAKI-1 84.9 µM | HCC 2998 61.1 µM | OVCAR-3 47.5 µM | RPMI-8226 11.2 µM | Malme-3M 35 µM | SK-MEL-28 > 100 µM

O=C1CSC(c2c[nH]c3ccccc23)N1c1ccc(Cl)cc1Cl (centres undefined)
inactive: HOP-62 > 100 µM | LOX IMVI > 100 µM | MCF7 > 100 µM | UACC-62 > 100 µM | SR > 100 µM | NCI-H23 > 100 µM | A549 > 100 µM | HCT-116 > 100 µM | SF-268 > 100 µM | 786-0 > 100 µM | HCC 2998 > 100 µM | OVCAR-3 > 100 µM | MDA-MB-231 > 100 µM | RPMI-8226 > 100 µM | SK-MEL-28 > 100 µM | SK-OV-3 > 100 µM

COC(=O)C1=C(\c2ccccc2)c2ccccc2C(=O)N(C2CCCCC2)/C=C\1
inactive: HOP-62 21.3 µM | LOX IMVI 14.2 µM | MCF7 19.8 µM | NCI-H23 17.1 µM | A549 16 µM | HCT-116 19.4 µM | NCI-H226 18.2 µM | SF-268 27.8 µM | 786-0 34.6 µM | CAKI-1 20.9 µM | HCC 2998 10.7 µM | OVCAR-3 21.7 µM | MDA-MB-231 17.2 µM | Malme-3M 25.3 µM | SK-MEL-28 17.9 µM | SK-OV-3 74.1 µM

O=C(NC1C=CCC2C(=O)N(c3ccccc3)C(=O)C12)OCc1ccccc1 (centres undefined)
inactive: HOP-62 > 100 µM | LOX IMVI > 100 µM | UACC-62 > 100 µM | SR > 100 µM | NCI-H23 > 100 µM | A549 > 100 µM | HCT-116 > 100 µM | NCI-H226 > 100 µM | SF-268 > 100 µM | 786-0 > 100 µM | CAKI-1 > 100 µM | HCC 2998 > 100 µM | OVCAR-3 > 100 µM | RPMI-8226 > 100 µM | SK-MEL-28 > 100 µM | SK-OV-3 > 100 µM

O=C1Nc2c(ccc(Cl)c2I)C1=O
inactive: HOP-62 20.8 µM | LOX IMVI 19.1 µM | UACC-62 17.6 µM | SR 18.8 µM | NCI-H23 14.6 µM | A549 34.9 µM | HCT-116 19.1 µM | NCI-H226 22.5 µM | SF-268 20 µM | 786-0 15 µM | CAKI-1 16.4 µM | HCC 2998 19.6 µM | OVCAR-3 19.9 µM | RPMI-8226 15.5 µM | Malme-3M 15 µM | SK-MEL-28 18.4 µM | SK-OV-3 18.5 µM

CC1=C(C(=O)Nc2ccccc2C)C(c2ccco2)C(C(=O)Nc2ccccc2C)=C(C)N1C
inactive: HOP-62 > 100 µM | LOX IMVI > 100 µM | UACC-62 > 100 µM | SR 72.8 µM | NCI-H23 > 100 µM | A549 > 100 µM | HCT-116 > 100 µM | NCI-H226 > 100 µM | SF-268 > 100 µM | 786-0 > 100 µM | CAKI-1 > 100 µM | HCC 2998 > 100 µM | OVCAR-3 > 100 µM | RPMI-8226 > 100 µM | Malme-3M > 100 µM | SK-MEL-28 > 100 µM | SK-OV-3 > 100 µM

O=C(N/C(=C\c1cc(Cl)ccc1Cl)c1nc2cc(Cl)ccc2[nH]1)c1ccccc1
inactive: HOP-62 18 µM | LOX IMVI 13.6 µM | UACC-62 11.4 µM | SR 5.43 µM | NCI-H23 13 µM | A549 16.8 µM | HCT-116 10.5 µM | NCI-H226 17.3 µM | SF-268 13.8 µM | 786-0 24.8 µM | CAKI-1 22 µM | HCC 2998 18.2 µM | OVCAR-3 15.2 µM | RPMI-8226 12.2 µM | Malme-3M 18.9 µM | SK-MEL-28 17.4 µM | SK-OV-3 21.5 µM

COc1ccc(NC(=O)CC(=O)N2N=C(N(CCC#N)c3ccccc3Cl)CC2c2ccccc2)cc1 (centres undefined)
inactive: HOP-62 > 100 µM | LOX IMVI > 100 µM | UACC-62 > 100 µM | SR > 100 µM | NCI-H23 > 100 µM | A549 > 100 µM | HCT-116 > 100 µM | NCI-H226 > 100 µM | SF-268 > 100 µM | 786-0 > 100 µM | CAKI-1 > 100 µM | HCC 2998 > 100 µM | OVCAR-3 > 100 µM | RPMI-8226 > 100 µM | Malme-3M > 100 µM | SK-MEL-28 > 100 µM

Cn1cnc([N+](=O)[O-])c1Sc1nnc(C(F)(F)F)n1C
inactive: HOP-62 > 100 µM | LOX IMVI 15.3 µM | UACC-62 18 µM | SR 17.6 µM | NCI-H23 37.5 µM | A549 > 100 µM | HCT-116 16.3 µM | NCI-H226 24.9 µM | SF-268 83.6 µM | 786-0 39.4 µM | CAKI-1 62.1 µM | HCC 2998 75.2 µM | OVCAR-3 22 µM | RPMI-8226 19.7 µM | Malme-3M 15.1 µM | SK-MEL-28 18.7 µM | SK-OV-3 > 100 µM

O=C(O)C1=Cc2cccc3cccc(c23)C1=O
inactive: HOP-62 > 100 µM | LOX IMVI > 100 µM | UACC-62 > 100 µM | SR > 100 µM | NCI-H23 > 100 µM | A549 > 100 µM | HCT-116 > 100 µM | NCI-H226 > 100 µM | SF-268 > 100 µM | 786-0 > 100 µM | CAKI-1 > 100 µM | HCC 2998 > 100 µM | OVCAR-3 > 100 µM | RPMI-8226 > 100 µM | Malme-3M > 100 µM | SK-MEL-28 > 100 µM | SK-OV-3 > 100 µM

O=C(c1cccs1)N(C(=S)N1CCN(c2ccccn2)CC1)c1ccccc1
inactive: HOP-62 > 100 µM | LOX IMVI > 100 µM | UACC-62 46.5 µM | SR > 100 µM | NCI-H23 > 100 µM | A549 > 100 µM | HCT-116 56.2 µM | NCI-H226 29 µM | SF-268 87.3 µM | 786-0 > 100 µM | CAKI-1 76 µM | OVCAR-3 > 100 µM | RPMI-8226 > 100 µM | Malme-3M > 100 µM | SK-MEL-28 > 100 µM | SK-OV-3 > 100 µM

N#C[BH2-][n+]1cn(C2CC(O)C(COP(=O)(O)OC3CC(n4c[n+]([BH2-]C#N)c5c(=O)[nH]c(N)nc54)OC3CO)O2)c2nc(N)[nH]c(=O)c21 (centres undefined)
inactive: HOP-62 > 100 µM | MCF7 > 100 µM | UACC-62 > 100 µM | SR > 100 µM | NCI-H23 > 100 µM | A549 > 100 µM | HCT-116 > 100 µM | NCI-H226 > 100 µM | SF-268 > 100 µM | 786-0 > 100 µM | CAKI-1 > 100 µM | HCC 2998 > 100 µM | OVCAR-3 > 100 µM | MDA-MB-231 > 100 µM | RPMI-8226 > 100 µM | Malme-3M > 100 µM | SK-MEL-28 > 100 µM

CCC(C)C1NC(=O)C2CCCN2C(=O)CNC(=O)C(C)NC(=O)C(Cc2ccccc2)NC(=O)C(C(C)C)NC1=O (centres undefined) (cyclo(GPIVFA); configuration not given here)
inactive: HOP-62 > 100 µM | LOX IMVI > 100 µM | UACC-62 > 100 µM | SR > 100 µM | NCI-H23 > 100 µM | A549 > 100 µM | HCT-116 > 100 µM | NCI-H226 > 100 µM | SF-268 > 100 µM | 786-0 > 100 µM | CAKI-1 > 100 µM | HCC 2998 > 100 µM | OVCAR-3 > 100 µM | RPMI-8226 > 100 µM | Malme-3M > 100 µM | SK-MEL-28 > 100 µM | SK-OV-3 > 100 µM
